Data taken from patent US9492418B2, “Inhibitors of PFKFB3 for cancer therapy” (Board of Supervisors of Louisiana State University And …, priority 2011, dated 2016).

Legend:
[1] = target: T1, human PFKFB3 (Homo sapiens, UniProt Q16875); assay: 2-Kase assay and kinetic analysis (enzyme-coupled Fru-2,6-BP assay); assay type: biochemical; set-up: 443 amino acid residues of the full-length protein of 520 residues; 6xHis; made in house; host or cells: Escherichia coli BL21(DE3) pLysS; conditions: for Inhibition (type): versus Fru-6-P
T1 sequence (Q16875 whole entry): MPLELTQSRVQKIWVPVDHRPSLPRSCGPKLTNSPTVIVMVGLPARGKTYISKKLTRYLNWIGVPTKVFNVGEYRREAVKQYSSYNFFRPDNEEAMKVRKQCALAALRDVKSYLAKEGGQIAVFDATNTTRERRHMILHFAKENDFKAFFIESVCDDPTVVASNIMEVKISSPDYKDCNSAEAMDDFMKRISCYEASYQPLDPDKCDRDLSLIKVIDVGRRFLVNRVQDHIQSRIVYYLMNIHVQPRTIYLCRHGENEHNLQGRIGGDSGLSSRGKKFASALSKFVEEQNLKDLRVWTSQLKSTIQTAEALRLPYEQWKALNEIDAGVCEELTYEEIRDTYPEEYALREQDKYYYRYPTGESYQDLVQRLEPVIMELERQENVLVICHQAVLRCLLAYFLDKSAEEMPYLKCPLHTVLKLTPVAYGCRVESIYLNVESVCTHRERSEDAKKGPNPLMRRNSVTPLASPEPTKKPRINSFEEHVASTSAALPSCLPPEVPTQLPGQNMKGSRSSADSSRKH
Description: To determine steady-state initial reaction rates, the 2-Kase reactions were performed first and the Fru-2,6-BP produced was measured by a conventional enzyme-coupled kinetics assay as described previously. The compounds, N4A and RBC2 came from the National Cancer Institute as indicated in Example 1. […] Initial rates of decrease in absorbance (Abs) at 340 nm were corrected with the rate of the control reaction in which no Fru-2,6-BP was present. Negative controls were carried out in the absence of enzyme and positive controls indicate the reaction in the presence of enzyme without inhibitor compounds. […] IC50 values were determined in quadruplicate. For the kinetic studies, concentrations of one of substrate and inhibitor were varied, and decrease in absorbance at 340 nm was measured. The inhibition patterns were analyzed using the program written by Cleland, in which Ki is the dissociation constants for the inhibitor from enzyme-inhibitor complex. For Selectivity studies, the 2-Kase assays were performed first and the F-2,6-P2 produced was measured by an enzyme coupled kinetics assay as described above. The His6-tagged PFKFB isoforms, PFKFB1, PFKFB2, and PFKFB4 were expressed in Escherichia coli C41(DE3) and purified using Ni-NTA affinity columns.

[2] = tested on: HeLa and T47D cells; assay: Cell growth inhibition (XTT or trypan blue); assay type: cell-based, human; conditions: for cell survival compared to unexposed cells: 25 μM
Description: (§1) HeLa and T47D cell lines were cultured in a 10% CO2 humidified atmosphere at 37° C. as exponentially growing monolayers in Dulbecco's modified Eagle's medium (DMEM) with glutamax (Invitrogen), supplemented with 10% fetal calf serum (Invitrogen) and penicillin/streptomycin (100 U/ml and 100 μg/ml). The human cervical carcinoma cell line, HeLa, was kindly provided by Dr. J. Kim (Louisiana State University) and the human breast carcinoma cell line, T47D, was obtained from the American Type Culture Collection (Manassas, Va.).
Cell growth inhibition was determined by an XTT-based in-vitro toxicology assay (Sigma-Aldrich) or trypan blue staining. Cells were plated at a density of 3.5×10^4 per well in a 24-well plate in DMEM containing 10% FCS. These cells were allowed to attach for 24 hours, and the media were replaced with fresh media containing either vehicle (dimethyl sulfoxide) or appropriate concentrations of test compounds. After 36 hours of incubation with either vehicle or compounds, cells were trypsinized and cell viability was determined by the trypan blue exclusion assay using a hemacytometer. For the XTT assay, cells were seeded into 96-well cell culture plates at a density of 0.6×10^4 per well. After the appropriate treatment described above, cells were incubated with 0.1 mg/ml of 2,3-bis(2-methoxy-4-nitro-5-sulfophenyl)-5-[(phenylamino)carbonyl]-2H-tetrazolium hydroxide (XTT) for 4 hours, and then cell number was determined by the absorbance at 470 nm, which is proportional to the number of cells that remained attached to the plate. GI50s were calculated as the inhibitor concentration needed for 50% of vehicle-treated cell growth. The appearance of apoptotic or necrotic cells was determined by flow cytometric analysis of cells double stained with Annexin V-FITC and propidium iodide (PI). […] The fluorescence of samples were analyzed by flow cytometry (FACSCalibur®, Becton Dickinson Immunocytometry, San Jose, Calif.) using the CellQuest (BD Bioscience, Immunocytometry Systems, San Jose, Calif., USA) software.

[3] = tested on: HeLa cells; assay: Cellular Fru-2,6-BP level determination; assay type: cell-based, human; conditions: 25 μM, 8 hour exposure
Description: HeLa cells were plated at a density of 2.5×10^5 in a 6-well plate in DMEM containing 10% FCS. The media were replaced with fresh DMEM containing either vehicle (dimethyl sulfoxide) or 25 μM of inhibitor the following day. After 0, 4, 8, 12, 24, or 48 hours of incubation with each inhibitor, media samples were collected for measuring the lactate secretion levels using a lactate oxidase-based assay kit (Sigma-Aldrich), and the lactate concentration was normalized to the total cellular protein concentration. The Fru-2,6-BP level was determined with collected cells at times of 0, 4, 8, 12, 24, or 48 hours after the treatment, using the method described previously.

[4] = tested on: HeLa cells; assay: Flow-cytometric analysis of cell death (Annexin V-FITC / PI); assay type: cell-based, human
Description: Cell growth inhibition was determined by an XTT-based in-vitro toxicology assay (Sigma-Aldrich) or trypan blue staining. Cells were plated at a density of 3.5×10^4 per well in a 24-well plate in DMEM containing 10% FCS. These cells were allowed to attach for 24 hours, and the media were replaced with fresh media containing either vehicle (dimethyl sulfoxide) or appropriate concentrations of test compounds. After 36 hours of incubation with either vehicle or compounds, cells were trypsinized and cell viability was determined by the trypan blue exclusion assay using a hemacytometer. For the XTT assay, cells were seeded into 96-well cell culture plates at a density of 0.6×10^4 per well. After the appropriate treatment described above, cells were incubated with 0.1 mg/ml of 2,3-bis(2-methoxy-4-nitro-5-sulfophenyl)-5-[(phenylamino)carbonyl]-2H-tetrazolium hydroxide (XTT) for 4 hours, and then cell number was determined by the absorbance at 470 nm, which is proportional to the number of cells that remained attached to the plate. GI50s were calculated as the inhibitor concentration needed for 50% of vehicle-treated cell growth. The appearance of apoptotic or necrotic cells was determined by flow cytometric analysis of cells double stained with Annexin V-FITC and propidium iodide (PI). Apoptotic and necrotic cells were distinguished on the basis of double-labeling for Annexin V-FITC (Sigma-Aldrich) and PI, a membrane-impermeable DNA stain. Floating and freshly trypsinized cells were pooled, washed twice in binding buffer, and processed following manufacturer's instructions. The fluorescence of samples were analyzed by flow cytometry (FACSCalibur®, Becton Dickinson Immunocytometry, San Jose, Calif.) using the CellQuest (BD Bioscience, Immunocytometry Systems, San Jose, Calif., USA) software.

[5] = target: T2, PFKFB2 (Homo sapiens, UniProt O60825); assay: 2-Kase selectivity assay on PFKFB isoforms; assay type: biochemical; conditions: at twice the IC50 for PFKFB3 (N4A=6 μM, YN1=1.3 μM)
T2 construct: His6; made in house; host or cells: Escherichia coli C41(DE3)
T2 sequence (O60825 whole entry, canonical isoform): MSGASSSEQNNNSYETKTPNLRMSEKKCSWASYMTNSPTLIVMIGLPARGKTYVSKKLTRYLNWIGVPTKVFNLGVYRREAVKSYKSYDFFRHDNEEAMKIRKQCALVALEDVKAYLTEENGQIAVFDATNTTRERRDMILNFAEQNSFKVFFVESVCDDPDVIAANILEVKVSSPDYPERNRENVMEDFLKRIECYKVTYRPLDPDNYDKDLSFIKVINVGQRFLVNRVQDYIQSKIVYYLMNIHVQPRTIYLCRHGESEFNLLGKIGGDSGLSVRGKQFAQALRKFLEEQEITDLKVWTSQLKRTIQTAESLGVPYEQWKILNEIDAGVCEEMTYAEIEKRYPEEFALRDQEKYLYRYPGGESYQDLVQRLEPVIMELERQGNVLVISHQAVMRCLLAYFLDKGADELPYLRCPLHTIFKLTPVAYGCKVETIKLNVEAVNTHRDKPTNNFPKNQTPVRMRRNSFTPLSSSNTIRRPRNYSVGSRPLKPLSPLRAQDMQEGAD
Description: (§2) To determine steady-state initial reaction rates, the 2-Kase reactions were performed first and the Fru-2,6-BP produced was measured by a conventional enzyme-coupled kinetics assay as described previously. The compounds, N4A and RBC2 came from the National Cancer Institute as indicated in Example 1. […] Initial rates of decrease in absorbance (Abs) at 340 nm were corrected with the rate of the control reaction in which no Fru-2,6-BP was present. Negative controls were carried out in the absence of enzyme and positive controls indicate the reaction in the presence of enzyme without inhibitor compounds. The percentage of Inhibitory activity was calculated according to the formula: % inhibition=100×[1−(Absnegative control−Abscompound)/(Absnegative control−Abspositive control)]. IC50 values were determined in quadruplicate. For the kinetic studies, concentrations of one of substrate and inhibitor were varied, and decrease in absorbance at 340 nm was measured. The inhibition patterns were analyzed using the program written by Cleland, in which Ki is the dissociation constants for the inhibitor from enzyme-inhibitor complex. For Selectivity studies, the 2-Kase assays were performed first and the F-2,6-P2 produced was measured by an enzyme coupled kinetics assay as described above. The His6-tagged PFKFB isoforms, PFKFB1, PFKFB2, and PFKFB4 were expressed in Escherichia coli C41(DE3) and purified using Ni-NTA affinity columns.

[6] = target: T3, PFKFB1 (Homo sapiens, UniProt P16118); assay: 2-Kase selectivity assay on PFKFB isoforms; assay type: biochemical; conditions: at twice the IC50 for PFKFB3 (N4A=6 μM, YN1=1.3 μM)
T3 construct: His6; made in house; host or cells: Escherichia coli C41(DE3)
T3 sequence (P16118 whole entry, canonical isoform): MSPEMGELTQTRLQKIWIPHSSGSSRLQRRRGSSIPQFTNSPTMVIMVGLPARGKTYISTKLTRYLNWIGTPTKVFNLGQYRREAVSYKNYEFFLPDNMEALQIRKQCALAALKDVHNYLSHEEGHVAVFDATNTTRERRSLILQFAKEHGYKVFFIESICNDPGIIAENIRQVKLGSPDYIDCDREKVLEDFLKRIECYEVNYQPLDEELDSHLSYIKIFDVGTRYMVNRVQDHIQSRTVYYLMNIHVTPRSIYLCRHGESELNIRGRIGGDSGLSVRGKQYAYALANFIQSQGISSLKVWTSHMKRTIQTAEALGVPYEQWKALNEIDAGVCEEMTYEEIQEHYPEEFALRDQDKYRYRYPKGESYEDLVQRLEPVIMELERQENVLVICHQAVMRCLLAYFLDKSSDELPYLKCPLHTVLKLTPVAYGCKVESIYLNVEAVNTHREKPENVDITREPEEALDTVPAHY
Description: as §2

[7] = target: T4, PFKFB4 (Homo sapiens, UniProt Q16877); assay: 2-Kase selectivity assay on PFKFB isoforms; assay type: biochemical; conditions: at twice the IC50 for PFKFB3 (N4A=6 μM, YN1=1.3 μM)
T4 construct: His6; made in house; host or cells: Escherichia coli C41(DE3)
T4 sequence (Q16877 whole entry, canonical isoform): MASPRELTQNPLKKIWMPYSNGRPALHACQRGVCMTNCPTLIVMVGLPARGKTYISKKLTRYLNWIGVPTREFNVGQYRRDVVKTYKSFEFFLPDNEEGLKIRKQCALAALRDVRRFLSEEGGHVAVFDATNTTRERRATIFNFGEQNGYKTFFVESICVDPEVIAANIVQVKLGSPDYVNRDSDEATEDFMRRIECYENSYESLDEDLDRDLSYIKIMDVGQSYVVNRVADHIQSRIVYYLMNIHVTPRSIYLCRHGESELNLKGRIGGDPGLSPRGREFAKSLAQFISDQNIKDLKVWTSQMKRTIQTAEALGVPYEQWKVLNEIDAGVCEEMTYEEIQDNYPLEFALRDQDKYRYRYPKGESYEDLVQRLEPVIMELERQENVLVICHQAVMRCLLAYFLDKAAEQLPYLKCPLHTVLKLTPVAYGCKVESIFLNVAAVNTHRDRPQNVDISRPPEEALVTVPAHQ
Description: as §2

[8] = tested on: HeLa cells; assay: Soft agar colony formation; assay type: cell-based, human
Description: HeLa cell colony formation was determined by soft agar assay. Cells (2×10^3) were mixed in DMEM medium containing 0.35% agarose and varying concentrations of N4A or YN1. Then the cell mixture was added on a layer of 0.6% concentration of bottom agar in 24 well plate and allowed to grow for three weeks at 37° C. under 5% CO2. Fresh medium containing the inhibitors or vehicle (DMSO) was changed every four days. Colonies of 50 cells or more were counted after three weeks. The experiments were repeated at least five times.

[9] = tested on: T47D; assay: Cell growth inhibition; assay type: cell-based; conditions: Homo sapiens
Description: as §1
Cell growth inhibition was determined by an XTT-based in-vitro toxicology assay (Sigma-Aldrich) or trypan blue staining. […] After 36 hours of incubation with either vehicle or compounds, cells were trypsinized and cell viability was determined by the trypan blue exclusion assay using a hemacytometer. […] After the appropriate treatment described above, cells were incubated with 0.1 mg/ml of 2,3-bis(2-methoxy-4-nitro-5-sulfophenyl)-5-[(phenylamino)carbonyl]-2H-tetrazolium hydroxide (XTT) for 4 hours, and then cell number was determined by the absorbance at 470 nm, which is proportional to the number of cells that remained attached to the plate. […] The appearance of apoptotic or necrotic cells was determined by flow cytometric analysis of cells double stained with Annexin V-FITC and propidium iodide (PI). […]

[10] = target: T1, human PFKFB3; assay: Biochemical throughput screening of NCI Diversity Set II and steady-state inhibition kinetics; set-up: 443 amino acid residues of the full-length protein of 520 residues; 6xHis; made in house; conditions: against F-6-P and ATP
Description: To generate a framework of actives and non-actives for virtual screening, a throughput study of 1,364 NCI compounds was carried out. The inhibition extent of 10 μM of each compound, in substrate saturation conditions, was quantified and the results of the top 50 compounds are shown in FIG. 1. An arbitrary cutoff was chosen at 75% inhibition to describe compounds that were to be considered ‘potential’ actives. Based on this cutoff, 10 compounds were identified from the original 1,364.
To select the true positives, the 10 potential actives were subsequently tested for specificity for the F-6-P site, because the virtual screening was targeted for the F-6-P site. Using conventional steady state inhibition kinetics, 6 compounds were selected as the ‘true actives’ (T-actives), and these six compounds are shown in FIG. 3.
The recombinant human PFKFB3 was expressed and purified as previously described.[20] The 1,364 individual compounds of NCI's Diversity Set II were acquired from the NCI.
The 2-kinase activity assay for throughput screening was performed using a F-2,6-P2 assay modified for 96-well plates from the conventional method.[21] […] The reactions of seconds step were started by adding 0.5 mM sodium pyrophosphate (PPi) and were then measured for changes in absorbance at 340 nm over a period of 30 minutes. […]

[11] = tested on: MCF7; assay: Cell growth inhibition; assay type: cell-based; conditions: Homo sapiens
Description: Cell growth inhibition was determined by an XTT-based in-vitro toxicology assay (Sigma-Aldrich) or trypan blue staining. Cells were plated at a density of 3.5×10^4 per well in a 24-well plate in DMEM containing 10% FCS. These cells were allowed to attach for 24 hours, and the media were replaced with fresh media containing either vehicle (dimethyl sulfoxide) or appropriate concentrations of test compounds. After 36 hours of incubation with either vehicle or compounds, cells were trypsinized and cell viability was determined by the trypan blue exclusion assay using a hemacytometer. For the XTT assay, cells were seeded into 96-well cell culture plates at a density of 0.6×10^4 per well. After the appropriate treatment described above, cells were incubated with 0.1 mg/ml of 2,3-bis(2-methoxy-4-nitro-5-sulfophenyl)-5-[(phenylamino)carbonyl]-2H-tetrazolium hydroxide (XTT) for 4 hours, and then cell number was determined by the absorbance at 470 nm, which is proportional to the number of cells that remained attached to the plate. GI50s were calculated as the inhibitor concentration needed for 50% of vehicle-treated cell growth. The appearance of apoptotic or necrotic cells was determined by flow cytometric analysis of cells double stained with Annexin V-FITC and propidium iodide (PI). […]

Row | Structure (SMILES) | inhibition at 10 µM ([1]; 10 μM, substrate-saturating conditions, not affected by 0.1% Tween-20) [%] | IC50 ([1]; PFKFB3 2-kinase activity) [nM] | Ki ([1]; competitive against Fru-6-P) [nM] | Inhibition (type) [1] | cell survival compared to unexposed cells [2] | reduction of Fru-2,6-BP (ratio to control) [3] | type of cell death at low concentration ([4]; 25 μM) | type of cell death induced ([4]; 25 μM and 50 μM) | type of cell death at higher concentration ([4]; 50 μM) | percent inhibition of PFKFB2 [5] | percent inhibition of PFKFB1 [6] | percent inhibition of PFKFB4 [7] | inhibition at 25 µM ([8]; Homo sapiens, 504 h, soft agar, 25 μM, 3 weeks, read-out: colony formation inhibited) [%] | effect on colony formation ([8]; soft agar, 25, 50 and 100 μM) | GI50 ([2]; Homo sapiens, 36 h, cell line not stated in Table 1 (HeLa and T47D tested)) [nM] | GI50 [9] [nM] | inhibition pattern [10] | GI50 [11] [nM]
1 | O=c1cc(-c2ccc(O)cc2)oc2c(O)c(O)c(O)c(O)c12 [Compound N4A, 5,6,7,8-tetrahydroxy-2-(4-hydroxyphenyl)chromene-4-one] | > 65 | 2970 ± 160 | 1290 ± 260 | competitive inhibitor against Fru-6-P | significant reduction in cell survival | approximately 20% | cells were found to be prone to apoptosis | induced both apoptotic and necrotic cell death | death by necrosis was significantly increased | less than 50% | less than 50% | less than 50% | 64 | significantly inhibited colony formation | – | – | – | –
2 | CCOC(=O)c1cc2ccc(O)cc2oc1=O [YZ9, ethyl 7-hydroxy-2-oxochromene-3-carboxylate] | – | – | – | – | significant reduction in cell survival | – | – | – | – | – | – | – | – | – | 2700 | – | – | –
3 | CCOC(=O)C=C(C)Sc1cc(O)c2ccccc2c1O (stereo in doubt) [RBC2, (Z)-ethyl 3-((1,4-dihydroxynaphthalen-2-yl)thio)but-2-enoate] | – | – | – | Competitive | – | – | – | – | – | – | – | – | – | – | – | 3500 | competitive inhibition | 4400
